Results reported in patent US20170304251A1, “AVOCADO-DERIVED LIPIDS FOR USE IN TREATING LEUKEMIA” (priority 2014, published 2017).
Where two headings read alike, the source gives them in different places.

What was measured:
Format in all cases: cell-based
TEX cells [1] = experiment: Hypoxia experiments, sulforhodamine B assay
Method: (A) Jurkat T cells were cultured in 50 ng/ml of ethidium bromide, […] sodium pyruvate and 50 μg/ml uridine for 60 days to create Jurkat-EtBr cells which lack functional mitochondrial. To confirm that Jurkat-EtBr cells lack mitochondria, the mitochondria specific markers adenine nucleotide translocator (ANT) and complex I (ND1) were measured by Western blotting. (B) Avocatin B's activity was tested in cells with (JURK) and with reduced (JURK-EtBr) mitochondria. Viability was measured by the ANN/PI assay and flow cytometry and data are presented as mean percentage of live cells (i.e., ANN/PI^−)±SD from representative experiments. […] Cell viability was measured by the sulforhodamine B assay, as described in the methods, following a 72 hour incubation period. Data are presented as percent viable. (D) Uncoupling protein 2 (UCP2) was measured in whole cell lysates of avocatin B (10 μM) or DMSO-control treated TEX cells by Western blotting. Arbitrary units (AU) are presented as fold change (compared to the 6 hour time point) and were calculated by dividing each treatment lane by the densitometry of its loading control. Densitometry was calculated as outlined in the methods.
Cell growth and viability were measured by the sulforhodamine B assay (Sigma Chemical) as previously described^8 following 72 hours of incubation.

TEX leukemia cells = experiment: MTS cell growth and viability assay, 72 hours
Method: Leukemia (OCI-AML2) cells were cultured in Iscove's Modified Dulbecco's Medium (IMDM) (Life Technologies; Grand Island, N.Y.) supplemented with 10% Fetal Bovine Serum (FBS; Seradigm; Providence, Utah) and antibiotics ([…]; Sigma Chemical; St. Louis, Mo.). TEX leukemia cells were cultured in 15% FBS, antibiotics and 2 mM L-glutamine (Sigma Chemical), 20 ng/ml stem cell factor and 2 ng/ml IL-3 (Peprotech; Hamburg Germany). Primary human samples (fresh and frozen) were obtained from the peripheral blood of AML patients who had at least 80% malignant cells among the mononuclear cells and cultured at 37° C. in IMDM, 20% FBS and antibiotics (see table 1a and 1 b for clinical parameters). […] Cell growth and viability was measured using the 3-(4,5-dimethylthiazol-2-yl)-5-(3-carboxymethoxyphenyl)-2-(4-sulfophenyl)-2H-tetrazolium inner salt (MTS) reduction assay (Promega; Madison, Wis.) according to the manufacturer's protocol and as previously described^7. Cells were seeded in 96-well plates, treated with drug for 72 hours and optical density (OD) was measured at 490 nm. Cell viability was also assessed by the trypan blue exclusion assay and by Annexin V and PI staining (Biovision; Mountainview, Calif.), as previously described^7. […] After 72 hours, cell proliferation and viability were measured by the MTS assay.

TEX cells [2] = experiment: Reactive oxygen species detection (DCFH-DA, DHE, flow cytometry)
From the text: Reactive oxygen species (ROS) were detected using 2′,7′dichlorohydrofluorescein-diacetate (DCFH-DA; Sigma Chemical) and dihyodroethidium (DHE; Sigma Chemical). DCFH-DA is hydrolyzed by intracellular esterase to produce a non-fluorescent DCFH product. It can then be oxidized by ROS to produce a highly fluorescent DCF product^14. DHE is a superoxide indicator which upon contact with superoxide anions produces the fluorescent product 2-hydroxyethidium^15. Following drug treatment, TEX cells (5×10^5) were collected and washed in PBS (Sigma-Aldrich). Cells were stained with 5 μM (final concentration) DCFH-DA or 10 μM DHE and allowed to incubate for 30 minutes in a humidified atmosphere containing 5% CO2 at 37° C. Samples were then washed in PBS and ROS was measured by flow cytometry using the Guava EasyCyte 8HT (Millipore). Data were analyzed with GuavaSoft 2.5 software (Millipore).

TEX cells [3] = experiment: Propidium iodide staining and flow cytometry (Example 6); details: increasing concentrations up to 10 micromolar
Method: Avocadyne, avocadene and avocatin B were tested for their toxicity to leukemic cells using TEX cells. The TEX cells were treated with increasing concentrations of each lipid (up to 10 micromolar) and subsequently stained with propidium iodide (PI), which stains only dead cells. The percent viability was measured using flow cytometry gating on PI positive and PI negative cells.

[4] = test system: fatty acid oxidation in TEX cells; experiment: Fatty acid oxidation, oxygen consumption rate (Seahorse XF24); details: avocatin B 10 μM, etomoxir 100 μM, palmitate 175 μM
Method: Measurement of oxygen consumption rates were performed using a Seahorse XF24 extracellular flux analyzer (Seahorse Bioscience; North Billerica, Mass.). TEX cells were cultured in α-Minimum Essential Medium (Life Technologies) containing 1% FBS and plated at 1×10^5 cells/well in poly-L-Lysine (Sigma Chemical) coated XF24 plates. Cells were incubated with etomoxir (100 μM; Sigma Chemical) or vehicle control for 30 minutes at 37° C. in a humidified atmosphere containing 5% CO2. Next, palmitate (175 μM; Seahorse Bioscience) or avocatin B (10 μM) was added and immediately transferred to the XF24 analyzer. Oxidation of exogenous fatty acids was determined by measuring mitochondrial respiration through sequential injection of 5 μM (final concentration) oligomycin, an ATP synthase inhibitor, (Millipore, Billerica, Mass.), 5 μM CCCP, a hydrogen ion ionophore, (Sigma Chemical), and 5 μM rotenone (Millipore)/5 μM antimycin A, which inhibit complex III activity, (Sigma Chemical). Fatty acid oxidation was determined by the change in oxygen consumption following oligomycin and CCCP treatment and prior to antimycin and rotenone treatment, according to the manufacturer's protocol and as described in Abe et al. (2013)^13. Data were analyzed with XF software (Seahorse Bioscience).

TEX cells [5] = experiment: NADPH, NADH and GSH fluorimetric detection; details: avocatin B 10 μM, etomoxir 100 μM; also in the presence of palmitate 175 μM
Method: Nicotinamide adenine dinucleotide phosphate (NADPH), nicotinamide adenine dinucleotide (NAD) and glutathione (GSH) were measured by commercially available fluorimetric kits (e.g. Amplite™ Fluorimetric kit (AAT Bioquest; Sunnyvale, Calif.) according to the manufacturers' protocol and as previously described^16, following incubation of increasing duration with avocatin B (10 μM). For NAPDH studies, cells were also incubated with palmitate (175 μM) in the presence or absence of etomoxir. For NADH and GSH studies, cells were incubated in the presence of palmitate and N-acetylcysteine (NAC; 1 mmol/L), respectively. Data are presented as a percent NAD, NADPH or GSH compared to control treated cells±SD.

TEX cells [6] = experiment: ANN/PI viability of TEX cells with antioxidants or etomoxir; details: 100 μM, 72 hours
Method: FIG. 6: Avocatin B inhibits fatty acid oxidation resulting in reduced NADPH and elevated ROS. (A) Illustration of fatty acid oxidation in mitochondria. Long chain fatty acids (LCFA) enter the mitochondria via CPT1 for fatty acid oxidation to yield acetyl-CoA. Acetyl-CoA enters the TCA cycle to generate NADPH, an enzymatic co-factor and antioxidant. (ME: malic enzyme; IDH: isocitrate dehydrogenase; α-KG: α-ketoglutarate). (B) Oxidation of exogenous fatty acids was assessed by measuring the oxygen consumption rate (OCR) in TEX cells treated with palmitate (175 μM), avocatin B (10 μM), avocatin B and palmitate or palmitate and etomoxir (100 μM). […] Effects on fatty acid oxidation were measured with the Seahorse Bioanalyzer, as detailed in the methods section, and (C) quantified by peak area after oligomycin and CCCP treatment, as described by the manufacturer's protocol and detailed in the methods. […] Viability was measured by the ANN/PI assay and data are presented as mean percentage of viable cells (i.e., ANN^−/PI^−)±SD from representative experiments. […] Data, percentage of NADH compared with vehicle control-treated cells±SD; (H) GSH was measured in TEX cells in the presence or absence of NAC using a commercially available fluorimetric assay following treatment with avocatin B ([…]), according to the manufacturers protocol. […]

[7] = 72 hours, avocatin B 2 μM, antimycin A 1 μM, rotenone 3 μM, daunorubicin 5 nM, cytarabine 4 nM

cytarabine
activity in hypoxic (1% oxygen) versus normoxic (21% oxygen) conditions (TEX cells [1]): unaffected

C#CCCCCCCCCCCCC(O)CC(O)CO (stereo not shown) [avocadyne]
cytotoxicity toward TEX cells (TEX leukemia cells): induce cytotoxicity
ROS activity of avocatin analogues (TEX cells [2]; Example 5, FIG. 12): induce ROS activity
ROS activity of avocatin analogues (TEX cells [2]; Example 5, FIG. 12, listed as Avoadyne): induce ROS production
amount of cell death (PI positive) in TEX cells, rank among the lipids (TEX cells [3]): greatest amount of cell death

C#CCCCCCCCCCCCC(O)CC(O)COC(C)=O (stereo not shown) [avocadyne acetate]
cytotoxicity toward TEX cells (TEX leukemia cells): induce cytotoxicity
ROS activity of avocatin analogues (TEX cells [2]; Example 5, FIG. 12): induce ROS activity
ROS activity of avocatin analogues (TEX cells [2]; Example 5, FIG. 12, listed as Avocadyne Acetate): induce ROS production

CCOC(=O)[C@@]1(CCCCCCOc2ccc(Cl)cc2)CO1 [etomoxir]
oxidation of exogenous palmitate (oxygen consumption rate) [4]: blocked
reduction in NADPH (TEX cells [5]): ~50%
effect of etomoxir on TEX viability (TEX cells [6]): does not impart toxicity
effect of etomoxir on TEX viability (TEX cells [6]; listed as Etomoxir): did not reduce viability

C=C(C)[C@H]1Cc2c(ccc3c2O[C@@H]2COc4cc(OC)c(OC)cc4[C@@H]2C3=O)O1 [rotenone]
activity in hypoxic (1% oxygen) versus normoxic (21% oxygen) conditions (TEX cells [1]; [7]): reduced

C=CCCCCCCCCCCCC(O)CC(O)CO (stereo not shown) [avocadene]
amount of cell death (PI positive) in TEX cells, rank among the lipids (TEX cells [3]): least amount of cell death

antimycin
activity in hypoxic (1% oxygen) versus normoxic (21% oxygen) conditions (TEX cells [1]; [7]): reduced

COc1cccc2c1C(=O)c1c(O)c3c(c(O)c1C2=O)C[C@@](O)(C(C)=O)C[C@@H]3O[C@H]1C[C@H](N)[C@H](O)[C@H](C)O1 [daunorubicin]
activity in hypoxic (1% oxygen) versus normoxic (21% oxygen) conditions (TEX cells [1]; [7]): unaffected
